# Experimental data: PubChem BioAssay (NCI)
#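 Cultured in 96-well plates, cells were exposed to test compound for 48 hours across five concentrations. Here, GI50 denotes the concentration required for 50% inhibition of growth. TGI: total growth inhibition.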
# How the values were obtained:
# Assay in all cases: NCI anticancer screen, dose series, 48 h
# [1] = system: UACC-257 melanoma
# [2] = system: UO-31 renal
# [3] = system: K-562 leukemia
# [4] = system: HOP-62 NSCLC
# [5] = system: MDA-MB-435
# [6] = system: SW-620 colon
# [7] = system: SN12C renal
# [8] = system: NCI/ADR-RES ovarian
# [9] = system: RXF 393 renal
# [10] = system: CCRF-CEM leukemia
# [11] = system: KM12 colon
# [12] = system: SF-268 CNS
# [13] = system: COLO 205 colon
# [14] = system: LOX IMVI melanoma
# [15] = system: RPMI-8226 leukemia
# [16] = system: UACC-62 melanoma
# [17] = system: OVCAR-8 ovarian
# [18] = system: HT29 colon
# [19] = system: IGROV1 ovarian
# [20] = system: MDA-MB-231 breast
# [21] = system: NCI-H23 lung
# [22] = system: SNB-75 CNS
# [23] = system: HOP-92 NSCLC
# [24] = system: NCI-H226 lung
# [25] = system: M14 melanoma
# [26] = system: SR leukemia
structure (smiles),measurement,setting,value
C#C[C@@]1(O)[C@@H](CO)O[C@@H](n2cc(Br)c3c(N)ncnc32)[C@@H]1O,GI50,[1],4080 nM
same,TGI,[1],61600 nM
same,GI50,[2],130 nM
same,TGI,[2],1500 nM
same,GI50,[3],60.8 nM
same,TGI,[3],> 100000 nM
same,GI50,[4],300 nM
same,TGI,[4],> 21800 nM
same,GI50,[5],176 nM
same,TGI,[5],10300 nM
same,GI50,[6],48.7 nM
same,TGI,[6],> 100000 nM
same,GI50,[7],90.7 nM
same,TGI,[7],> 100000 nM
same,GI50,[8],45.1 nM
same,TGI,[8],1020 nM
same,GI50,[9],480 nM
same,TGI,[9],2290 nM
same,GI50,[10],200 nM
same,TGI,[10],> 100000 nM
same,GI50,[11],107 nM
same,TGI,[11],> 100000 nM
same,GI50,[12],482 nM
same,TGI,[12],51700 nM
same,GI50,[13],89.1 nM
same,TGI,[13],460 nM
same,GI50,[14],55.2 nM
same,TGI,[14],249 nM
same,GI50,[15],128 nM
same,TGI,[15],828 nM
same,GI50,[16],230 nM
same,TGI,[16],12300 nM
same,GI50,[17],13.5 nM
same,TGI,[17],1120 nM
same,GI50,[18],38 nM
same,TGI,[18],> 100000 nM
same,GI50,[19],69.9 nM
same,TGI,[19],485 nM
same,GI50,[20],110 nM
same,TGI,[20],> 100000 nM
same,GI50,[21],191 nM
same,TGI,[21],2850 nM
same,GI50,[22],234 nM
same,TGI,[22],746 nM
same,GI50,[23],218 nM
same,TGI,[23],1460 nM
same,GI50,[24],1280 nM
same,TGI,[24],> 25200 nM
same,GI50,[25],226 nM
same,TGI,[25],13500 nM
same,GI50,[26],60.8 nM
same,TGI,[26],> 100000 nM
